pIC50: −log10 of the molar value. Read-outs that look alike come from different tables or passages of the source.
Key:
SRPK1 = SRPK1 (Homo sapiens, UniProt Q96SB4); test: In vitro SRPK1 assay (Kinase-Glo); assay type: biochemical
CYP1A2 = target: T1, CYP1A2 (Homo sapiens, UniProt P05177); test: CYP inhibition assay, human liver microsomes, substrate tacrine; assay type: in vitro ADME; conditions: for IC50: human liver microsomes, 10 min incubation, LC-MS/MS, read-out: CYP Inhibition Activity (IC50/nM) CYP1A2
T1 construct: from tissue; host or cells: human liver microsomes
T1 sequence (P05177 1-516): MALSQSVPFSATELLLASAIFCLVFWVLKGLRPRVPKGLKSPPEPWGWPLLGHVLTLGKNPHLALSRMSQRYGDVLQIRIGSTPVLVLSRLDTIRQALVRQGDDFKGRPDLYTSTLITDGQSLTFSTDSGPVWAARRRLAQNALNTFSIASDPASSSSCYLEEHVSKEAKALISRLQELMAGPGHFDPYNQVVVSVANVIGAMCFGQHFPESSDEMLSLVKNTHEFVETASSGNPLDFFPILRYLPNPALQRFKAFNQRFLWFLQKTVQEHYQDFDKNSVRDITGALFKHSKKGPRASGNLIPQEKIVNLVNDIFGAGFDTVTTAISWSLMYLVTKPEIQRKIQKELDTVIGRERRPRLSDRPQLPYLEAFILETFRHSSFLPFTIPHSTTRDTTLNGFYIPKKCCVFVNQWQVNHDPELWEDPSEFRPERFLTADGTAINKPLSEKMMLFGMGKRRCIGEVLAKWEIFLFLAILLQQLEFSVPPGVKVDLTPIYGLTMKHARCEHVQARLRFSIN
Description: (§1) 2 μL of test compound/Positive Inhibitor working solutions is then added to the reaction plate (2 μL/well). For control, 2 μL of Acetonitrile (ACN) containing DMSO (without inhibitor) is added to the reaction plate. 20 μL of substrate pool is added to all the wells of the reaction plate. The samples are mixed in a vortexer and pre-incubated at 37° C. for 20 min. The NADPH solution is pre-warmed at 37° C. for 5 min. 20 μL of pre-warmed NADPH solution is added to the reaction plate and then incubated at 37° C. for 10 min. The reaction is terminated by adding cold ACN (200 μL/well) to the reaction mixture and centrifuging at 4,000 rpm for 20 minutes. After centrifugation, supernatant is separated and analyzed by LC-MS/MS.
(§2) % inhibition and IC50 are calculated using Graphpad Prism software.

CYP2C9 = target: T2, CYP2C9 (Homo sapiens, UniProt P11712); test: CYP inhibition assay, human liver microsomes, substrate diclofenac; assay type: in vitro ADME; conditions: for IC50: human liver microsomes, 10 min incubation, LC-MS/MS, read-out: CYP Inhibition Activity (IC50/nM) CYP2C9
T2 construct: from tissue; host or cells: human liver microsomes
Description: as §1, §2

CYP2C19 = target: T3, CYP2C19 (Homo sapiens, UniProt P33261); test: CYP inhibition assay, human liver microsomes, substrate S-mephenytoin; assay type: in vitro ADME; conditions: for IC50: human liver microsomes, 10 min incubation, LC-MS/MS, read-out: CYP Inhibition Activity (IC50/nM) CYP2C19
T3 construct: from tissue; host or cells: human liver microsomes
Description: as §1, §2

CYP2D6 = target: T4, CYP2D6 (Homo sapiens, UniProt P10635); test: biochemical; assay type: in vitro ADME
T4 construct: from tissue; host or cells: human liver microsomes
Description: 158 μL of Human Liver Microsomes working stock solution is added to a reaction plate (0.253 mg/mL, 158 μL/well). 2 μL of test compound/Positive Inhibitor working solutions is then added to the reaction plate (2 μL/well). For control, 2 μL of Acetonitrile (ACN) containing DMSO (without inhibitor) is added to the reaction plate. 20 μL of substrate pool is added to all the wells of the reaction plate. The samples are mixed in a vortexer and pre-incubated at 37° C. for 20 min. The NADPH solution is pre-warmed at 37° C. for 5 min. 20 μL of pre-warmed NADPH solution is added to the reaction plate and then incubated at 37° C. for 10 min. The reaction is terminated by adding cold ACN (200 μL/well) to the reaction mixture and centrifuging at 4,000 rpm for 20 minutes. After centrifugation, supernatant is separated and analyzed by LC-MS/MS.
as §2

CYP3A4 = target: T5, CYP3A4 (Homo sapiens, UniProt P08684); test: CYP inhibition assay, human liver microsomes, substrate midazolam; assay type: in vitro ADME; conditions: for IC50: human liver microsomes, 10 min incubation, LC-MS/MS, read-out: CYP Inhibition Activity (IC50/nM) CYP3A4
T5 construct: from tissue; host or cells: human liver microsomes
Description: as §1, §2

T2 sequence (P11712 whole entry): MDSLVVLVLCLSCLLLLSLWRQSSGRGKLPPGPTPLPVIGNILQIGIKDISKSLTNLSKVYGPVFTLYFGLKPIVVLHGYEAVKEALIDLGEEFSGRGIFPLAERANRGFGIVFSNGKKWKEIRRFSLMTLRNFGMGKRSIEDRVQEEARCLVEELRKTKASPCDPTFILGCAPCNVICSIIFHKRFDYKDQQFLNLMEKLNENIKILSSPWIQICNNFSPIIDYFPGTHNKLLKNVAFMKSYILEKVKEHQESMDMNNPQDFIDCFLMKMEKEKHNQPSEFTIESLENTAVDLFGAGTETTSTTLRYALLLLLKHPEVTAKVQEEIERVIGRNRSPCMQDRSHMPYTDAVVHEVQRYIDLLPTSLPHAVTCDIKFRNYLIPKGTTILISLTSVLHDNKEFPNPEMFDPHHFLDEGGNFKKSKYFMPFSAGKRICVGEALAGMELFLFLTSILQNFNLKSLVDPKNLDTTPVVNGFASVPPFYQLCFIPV
Chain of SRPK1 (Q96SB4 whole entry, species assumed): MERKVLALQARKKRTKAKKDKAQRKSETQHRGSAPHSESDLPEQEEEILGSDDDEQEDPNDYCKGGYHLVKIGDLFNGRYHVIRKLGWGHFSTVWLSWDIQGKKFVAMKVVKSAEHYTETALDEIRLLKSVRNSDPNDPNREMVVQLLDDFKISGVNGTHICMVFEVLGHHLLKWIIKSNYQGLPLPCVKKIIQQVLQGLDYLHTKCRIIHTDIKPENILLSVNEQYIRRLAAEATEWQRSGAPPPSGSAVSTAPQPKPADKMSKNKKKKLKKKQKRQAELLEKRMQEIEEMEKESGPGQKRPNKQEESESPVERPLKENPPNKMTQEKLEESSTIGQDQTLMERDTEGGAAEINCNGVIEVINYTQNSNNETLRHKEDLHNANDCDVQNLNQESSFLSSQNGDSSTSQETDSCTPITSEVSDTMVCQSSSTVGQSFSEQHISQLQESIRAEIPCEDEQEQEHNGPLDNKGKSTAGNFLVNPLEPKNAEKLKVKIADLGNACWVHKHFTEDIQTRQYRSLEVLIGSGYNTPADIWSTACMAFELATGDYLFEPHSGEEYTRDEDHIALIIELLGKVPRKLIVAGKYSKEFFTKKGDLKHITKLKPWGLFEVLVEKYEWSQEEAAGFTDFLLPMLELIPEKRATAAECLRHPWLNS
T4 sequence (P10635 whole entry): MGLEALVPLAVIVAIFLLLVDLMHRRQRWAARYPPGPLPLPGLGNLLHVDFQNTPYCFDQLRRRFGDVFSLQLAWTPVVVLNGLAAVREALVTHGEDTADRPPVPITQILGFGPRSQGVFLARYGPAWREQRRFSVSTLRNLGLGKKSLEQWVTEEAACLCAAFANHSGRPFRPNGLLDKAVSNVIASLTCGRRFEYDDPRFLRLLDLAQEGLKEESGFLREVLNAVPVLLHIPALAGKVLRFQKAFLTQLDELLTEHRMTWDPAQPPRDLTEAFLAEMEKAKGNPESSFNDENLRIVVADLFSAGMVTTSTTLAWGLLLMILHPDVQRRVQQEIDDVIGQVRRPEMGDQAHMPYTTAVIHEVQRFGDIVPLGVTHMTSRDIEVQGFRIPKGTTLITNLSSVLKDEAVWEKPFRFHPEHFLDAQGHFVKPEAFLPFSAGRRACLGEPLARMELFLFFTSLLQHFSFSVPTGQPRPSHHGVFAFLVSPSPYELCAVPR
T3 sequence (P33261 whole entry): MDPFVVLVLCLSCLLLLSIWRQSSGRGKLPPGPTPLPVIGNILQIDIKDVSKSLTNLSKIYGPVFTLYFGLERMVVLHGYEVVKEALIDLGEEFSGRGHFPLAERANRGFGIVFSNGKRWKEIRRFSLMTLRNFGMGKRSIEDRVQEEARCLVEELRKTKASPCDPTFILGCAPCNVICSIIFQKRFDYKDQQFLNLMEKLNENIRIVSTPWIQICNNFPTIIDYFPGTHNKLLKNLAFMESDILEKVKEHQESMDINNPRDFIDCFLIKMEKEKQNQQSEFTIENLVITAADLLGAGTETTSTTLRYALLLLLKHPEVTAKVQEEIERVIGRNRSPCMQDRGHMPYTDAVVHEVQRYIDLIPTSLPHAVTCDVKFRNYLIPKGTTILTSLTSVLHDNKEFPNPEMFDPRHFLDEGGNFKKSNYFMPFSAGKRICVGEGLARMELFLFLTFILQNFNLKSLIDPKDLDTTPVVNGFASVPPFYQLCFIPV
T5 sequence (P08684 whole entry): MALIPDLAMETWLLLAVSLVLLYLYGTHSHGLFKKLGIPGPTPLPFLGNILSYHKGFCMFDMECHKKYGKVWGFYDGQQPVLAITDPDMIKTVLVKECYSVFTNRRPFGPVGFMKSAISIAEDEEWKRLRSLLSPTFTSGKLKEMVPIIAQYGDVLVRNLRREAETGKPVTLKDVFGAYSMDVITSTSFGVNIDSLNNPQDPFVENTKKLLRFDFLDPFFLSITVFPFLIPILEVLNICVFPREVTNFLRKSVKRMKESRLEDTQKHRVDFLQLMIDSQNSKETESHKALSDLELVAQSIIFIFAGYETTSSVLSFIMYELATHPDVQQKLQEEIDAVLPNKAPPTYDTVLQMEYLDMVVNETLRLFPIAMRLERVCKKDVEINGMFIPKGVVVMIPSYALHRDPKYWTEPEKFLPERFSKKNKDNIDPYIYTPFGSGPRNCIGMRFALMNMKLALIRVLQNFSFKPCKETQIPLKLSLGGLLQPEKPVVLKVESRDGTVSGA

Row | Molecule | IC50 (SRPK1) [nM] | IC50 (CYP1A2) [nM] | IC50 (CYP2C9) [nM] | IC50 (CYP2C19) [nM] | pIC50 (CYP2D6) | IC50 (CYP3A4) [nM] | pIC50 (CYP1A2; microsomes) | pIC50 (CYP2C9; microsomes) | pIC50 (CYP2C19; microsomes) | pIC50 (CYP2D6; microsomes) | pIC50 (CYP3A4; microsomes) | pIC50 (CYP2C9) | IC50 (CYP2D6; human liver microsomes, 10 min incubation, LC-MS/MS, read-out: CYP Inhibition Activity (IC50/nM) CYP2D6) [nM]
1 | O=C(Nc1cc(C(F)(F)F)ccc1N1CCC(O)C1)c1ccc(-c2ccncc2)o1 (racemic) [Example 56, N-(2-(3-hydroxypyrrolidin-1-yl)-5-(trifluoromethyl)-phenyl)-5-(pyridin-4-yl)furan-2-carboxamide] | 101 | 960 | 140 | 130 | 7.40 | 2420 | – | – | – | – | – | – | –
2 | CC1CCN(c2ccc(C(F)(F)F)cc2NC(=O)c2ccc(-c3ccncc3)o2)CC1 [Example 34, N-(2-(4-methylpiperidin-1-yl)-5-(trifluoromethyl)-phenyl)-5-(pyridin-4-yl)furan-2-carboxamide] | 422 | 4000 | 5600 | 4000 | 5.26 | 7300 | – | – | – | – | – | – | –
3 | O=C(Nc1cc(C(F)(F)F)ccc1N1CCN(Cc2cc[nH]n2)CC1)c1ccc(C2CCOCC2)o1 [Reference Example 3, N-(2-(4-((1H-pyrazol-3-yl)methyl)piperazin-1-yl)-5-(trifluoromethyl)-phenyl)-5-(tetrahydro-2H-pyran-4-yl)furan-2-carboxamide, reference compound] | – | > 30000 | 230 | 610 | 5.15 | 4160 | – | – | – | – | – | – | –
4 | 5-(pyridin-4-yl)-N-(2-(5-(thiazol-2-ylmethyl)piperazin-1-yl)-5-(trifluoromethyl)phenyl)furan-2-carboxamide [Reference Example 5, reference compound] | – | – | – | – | – | – | 4.82 | 6.60 | 6.64 | 6.70 | 6.21 | – | –
5 | O=C(Nc1cc(C(F)(F)F)ccc1N1CCN(Cc2cocn2)CC1)c1ccc(-c2ccncc2)o1 [Reference Example 4, N-(2-(4-(oxazol-4-ylmethyl)piperazin-1-yl)-5-(trifluoromethyl)phenyl)-5-(pyridin-4-yl)furan-2-carboxamide, reference compound] | – | > 30000 | 170 | 290 | 6.26 | 830 | – | – | – | – | – | – | –
6 | O=C(Nc1cc(C(F)(F)F)ccc1N1CCC(C(=O)O)CC1)c1ccccn1 [Example 30, 1-(2-(picolinamido)-4-(trifluoromethyl)phenyl)-piperidine-4-carboxylic acid] | 76 | – | – | – | – | – | – | – | – | – | – | – | –
7 | O=C(Nc1cc(C(F)(F)F)ccc1N1CCN(Cc2ccco2)CC1)c1ccc(-c2ccncc2)o1 [Reference Example 2, N-(2-(4-(furan-2-ylmethyl)piperazin-1-yl)-5-(trifluoromethyl)phenyl)-5-(pyridin-4-yl)furan-2-carboxamide, reference compound] | – | 21800 | 610 | 690 | 6.59 | 1180 | – | – | – | – | – | – | –
8 | O=C(Nc1cc(C(F)(F)F)ccc1N1CCN(Cc2ccccn2)CC1)c1ccc(-c2ccncc2)o1 [Reference Example 1, reference compound] | – | > 30000 | – | 230 | – | 310 | – | – | – | – | – | 6.77 | 740

The next lines start with results.

Row | IC50 (SRPK1) [nM] | IC50 (CYP1A2) [nM] | IC50 (CYP2C9) [nM] | IC50 (CYP2C19) [nM] | pIC50 (CYP2D6) | IC50 (CYP3A4) [nM] | pIC50 (CYP1A2; microsomes) | pIC50 (CYP2C9; microsomes) | pIC50 (CYP2C19; microsomes) | pIC50 (CYP2D6; microsomes) | pIC50 (CYP3A4; microsomes) | Molecule | pIC50 (CYP2C9) | IC50 (CYP2D6; human liver microsomes, 10 min incubation, LC-MS/MS, read-out: CYP Inhibition Activity (IC50/nM) CYP2D6) [nM]
9 | 0.9 | 10000 | 7600 | 8100 | 4.82 | > 30000 | – | – | – | – | – | O=C(Nc1cc(C(F)(F)F)ccc1N1CCC(O)CC1)c1ccc(C2CCOCC2)o1 [Example 33, N-(2-(4-hydroxypiperidin-1-yl)-5-(trifluoromethyl)-phenyl)-5-(tetrahydro-2H-pyran-4-yl)furan-2-carboxamide] | – | –
10 | 1.7 | 4000 | 600 | 1400 | 5.64 | 1200 | – | – | – | – | – | CC1(O)CCN(c2ccc(C(F)F)cc2NC(=O)c2ccc(-c3ccncc3)o2)CC1 [Example 7, N-(5-(difluoromethyl)-2-(4-hydroxy-4-methyl-piperidin-1-yl)phenyl)-5-(pyridin-4-yl)furan-2-carboxamide] | – | –
11 | 4.4 | 4990 | 350 | 890 | 5.29 | 360 | – | – | – | – | – | COc1ccc(N2CCC(C)(O)CC2)c(NC(=O)c2ccc(-c3ccncc3)o2)c1 [Example 9, N-(2-(4-hydroxy-4-methylpiperidin-1-yl)-5-methoxyphenyl)-5-(pyridin-4-yl)furan-2-carboxamide] | – | –
12 | 5 | 23200 | 2480 | 2480 | 5.46 | 4900 | – | – | – | – | – | CC1(O)CCN(c2ccc(C(F)(F)F)cc2NC(=O)c2ccc(-c3ccncc3)o2)CC1 [Example 4, N-(2-(4-hydroxy-4-methylpiperidin-1-yl)-5-(trifluoromethyl)phenyl)-5-(pyridin-4-yl)furan-2-carboxamide] | – | –
13 | 24 | > 30000 | 10100 | > 30000 | 6.40 | 7300 | – | – | – | – | – | CC1(CN2CCCC2)CCN(c2ccc(C(F)(F)F)cc2NC(=O)c2ccc(C3CCOCC3)o2)CC1 [Example 95, N-(2-(4-methyl-4-(pyrrolidin-1-ylmethyl)piperidin-1-yl)-5-(trifluoromethyl)phenyl)-5-(tetrahydro-2H-pyran-4-yl)furan-2-carboxamide] | – | –
14 | 35 | 17600 | 11500 | – | < 4.52 | 18300 | – | – | – | – | – | CC1(O)CCCN(c2ccc(C3CC3)cc2NC(=O)c2ccc(-c3ccncc3)o2)CC1 (racemic) [Example 39, N-(5-cyclopropyl-2-(4-hydroxy-4-methylazepan-1-yl)phenyl)-5-(pyridin-4-yl)-furan-2-carboxamide] | – | –
15 | 9.1 | > 30000 | 9130 | 20000 | 5.89 | 8320 | – | – | – | – | – | CC1(CN)CCN(c2ccc(C(F)(F)F)cc2NC(=O)c2ccc(-c3ccncc3)o2)CC1 [Example 78, N-(2-(4-(aminomethyl)-4-methylpiperidin-1-yl)-5-(trifluoromethyl)phenyl)-5-(pyridin-4-yl)furan-2-carboxamide] | – | –
16 | 2.6 | > 30000 | 23000 | – | 5.30 | 21200 | – | – | – | – | – | CC1(CN)CCN(c2ccc(C(F)(F)F)cc2NC(=O)c2ccc(C3CCOCC3)o2)CC1 [Example 81, N-(2-(4-(aminomethyl)-4-methylpiperidin-1-yl)-5-(trifluoromethyl)phenyl)-5-(tetrahydro-2H-pyran-4-yl)furan-2-carboxamide] | – | –
17 | 41 | – | – | – | – | – | – | – | – | – | – | O=C(Nc1cc(C(F)(F)F)ccc1N1CCC(CO)CC1)c1ccccn1 [Example 31, N-(2-(4-(hydroxymethyl)piperidin-1-yl)-5-(trifluoromethyl)phenyl)picolinamide] | – | –
18 | 2.8 | > 30000 | 4400 | 10800 | 4.93 | 10300 | – | – | – | – | – | CC1(C(N)=O)CCN(c2ccc(C(F)(F)F)cc2NC(=O)c2ccc(C3CCOCC3)o2)CC1 [Example 75, 4-methyl-1-(2-(5-(tetrahydro-2H-pyran-4-yl)furan-2-carboxamido)-4-(trifluoromethyl)-phenyl)piperidine-4-carboxamide] | – | –
19 | 3.4 | – | – | – | – | – | – | – | – | – | – | O=C(Nc1cc(C(F)(F)F)ccc1N1CCCC(O)CC1)c1ccccn1 (racemic) [Example 43, N-(2-(4-hydroxyazepan-1-yl)-5-(trifluoromethyl)-phenyl)picolinamide] | – | –

— patent US11420969B2 (Exonate Limited, priority 2017, dated 2022)
